Data on 7 compounds can be found in patent US4710568A, “Carbapenem antibiotics” (priority 1986, dated 1987).

Values after ≈ are worked out from the molar mass of the structure shown. Read-outs that look alike come from different tables or passages of the source.

One may read the MIC as the lowest concentration that inhibits growth of the organism. In general, half-life refers to the time needed for the level to fall by half in the phase considered. Read a low half-life as rapid decline.

One data set has as its system E. coli A20341-1. Nature of the data set: MIC by tube dilution in Nutrient Broth. The following applies: overnight at 37° C. It counts as cell-based.
The subject of the next data set is E. coli A15119. Description: MIC by tube dilution in Nutrient Broth. It counts as cell-based. The following applies: overnight at 37° C.
Another data set deals with P. aeruginosa A-9843A. Nature of the data set: MIC by tube dilution in Nutrient Broth. The following applies: additional data; overnight at 37° C. It counts as cell-based.
The next data set has as its system P. vulgaris A21559. Nature of the data set: MIC by tube dilution in Nutrient Broth. The following applies: additional data; overnight at 37° C. The data set is classed as cell-based.
A further data set has as its system S. aureus A-9537. Nature of the data set: MIC by tube dilution in Nutrient Broth. The data set is classed as cell-based. The following applies: additional data, overnight at 37° C.
In another data set the test system is K. pneumoniae A-9664. Nature of the data set: MIC by tube dilution in Nutrient Broth. It counts as cell-based. To be noted: additional data; overnight at 37° C.
The test system of another data set is P. morganii A15153. Description: MIC by tube dilution in Nutrient Broth. The data set is classed as cell-based. The following applies: additional data (M. morganii A15153); overnight at 37° C.
In another data set the test system is P. aeruginosa A21213. Description: MIC by tube dilution in Nutrient Broth. It counts as cell-based. The following applies: additional data; overnight at 37° C.
The subject of another data set is K. pneumoniae A20468. Nature of the data set: MIC by tube dilution in Nutrient Broth. The data set is classed as cell-based. To be noted: additional data; overnight at 37° C.
The subject of the next data set is S. pyogenes A-9604. Description: MIC by tube dilution in Nutrient Broth. The data set is classed as cell-based. The following applies: additional data; overnight at 37° C.
In another data set the test system is S. faecalis A20688. Nature of the data set: MIC by tube dilution in Nutrient Broth. To be noted: additional data; overnight at 37° C. The data set is classed as cell-based.
The next data set concerns P. mirabilis A-9900. Description: MIC by tube dilution in Nutrient Broth. The data set is classed as cell-based. The following applies: additional data; overnight at 37° C.
The subject of data set [1] is S. aureus (Pen-res.) A-9606. Description: MIC by tube dilution in Nutrient Broth. The data set is classed as cell-based. To be noted: additional data, overnight at 37° C.
A further data set concerns S. marcescens A20019. Description: MIC by tube dilution in Nutrient Broth. The data set is classed as cell-based. The following applies: additional data; overnight at 37° C.
A further data set deals with E. cloacae A-9659. Description: MIC by tube dilution in Nutrient Broth. The data set is classed as cell-based. To be noted: additional data; overnight at 37° C.
For a further data set, the system named is S. pneumoniae A-9585. Description: MIC by tube dilution in Nutrient Broth. It counts as cell-based. To be noted: additional data; overnight at 37° C.
Data set [2] is described as follows: half-life in phosphate buffer pH 7.4. The following applies: for t1/2: pH 7.4. The data set is classed as physicochemical. The procedure: To a solution of p-nitrobenzyl 3-[2-(1-pyridinium)ethylthio]-6α-[1-(R)-hydroxyethyl]-7-oxo-1-azabicyclo(3.2.0)hept-2-ene-carboxylate diphenylphosphate (0.16 g, 0.22 mmol) in wet tetrahydrofuran (10 mL) was added ether (10 mL), potassium phosphate monobasic-sodium hydroxide buffer pH 7.4 (16 mL, 0.05M) and 10% palladium on charcoal (0.16 g). The resulting mixture was hydrogenated under 40 psi for 1 h at 25° C. The two phases were separated and the organic phase was extracted with water (2×3 mL). The aqueous solutions were combined, washed with ether (2×10 mL) and poured on top of a column (1.5×6.2 cm) of μ-bondapak C-18 after the traces of organic solvents have been removed under vacuum.
To a solution of p-nitrobenzyl 3-[2-(1-(3,5-dimethylpyridinium))ethylthio]-6α-[1-(R)-hydroxyethyl]- 7-oxo-1-azabicyclo(3.2.0)hept-2-ene-2-carboxylate diphenylphosphate (0.600 g, 0.80 mmol) in wet tetrahydrofuran (36 mL) was added ether (36 mL), potassium phosphate monobasic-sodium hydroxide buffer (0.05M, pH 7.4, 44 mL) and 10% palladium on charcoal (0.60 g). The resulting mixture was hydrogenated under 40 psi at 23° C. for 1.25 h. The organic layer was separated and extracted with buffer (2×5 mL). […] Elution of the column with water and lyophilization of the appropriate fractions gave the title compound 0.186 g (64%) as a yellowish powder, ir (KBr) .nu.max : 3700-3100 (OH), 1760 (C= O of β-lactam), 1595 cm^-1 (carboxylate), ^1 Hmr (D2 O) δ: 1.21 (3H, d, J=6.3 Hz, CH3 CHOH), 2.45 (6H, s, CH3 on pyridinium), 2.81 (d, J=9.2 Hz, H-4), 2.96 (d, J=9.2 Hz, H-4), 3.22 (dd, J=2.6 Hz, J=6.2 Hz, H-6), 3.40 (t, J=6.2 Hz, CH2 S), 3.84 (dd, J=9.2 Hz, J=2.6 Hz, H-5), 4.15 (m, CH3 CHOH), 4.71 (t, J=6.2 Hz, CH2 N^+), 8.21 (1H, s, Hp of pyridinium), 8.46 (2H, s, Ho of pyridinium), uv (H2 O) λmax : 279 (ε8345), 296 (ε7714) m, [α]D^23 +40.7 (c 0.53, H2 O), .tau.1/2 =16.9 h (measured at a concentration of […] in phosphate buffer pH 7.4 at 36.8° C.). […]

The subject of the next data set is E. cloacae A-9656. Description: MIC by tube dilution in Nutrient Broth. The data set is classed as cell-based. To be noted: additional data; overnight at 37° C.
The subject of a further data set is P. rettgeri A22424. Description: MIC by tube dilution in Nutrient Broth. The data set is classed as cell-based. To be noted: additional data; overnight at 37° C.
Where [3] appears, read: Escherichia coli, A15119, additional data, read-out: MIC.

Consider `COc1ccc[n+](CCSC2=C(C(=O)[O-])N3C(=O)[C@H]([C@@H](C)O)[C@H]3C2)c1` [Ex. 10, 3-[2-(3-methoxy-1-pyridinium)ethylthio]6α-[1'-(R)-hydroxyethyl]-7-oxo-1-azabicyclo(3.2.0)hept-2-ene-2-carboxylate], for which the MIC with E. coli A20341-1 (Escherichia coli, A203411, additional data, read-out: MIC) came to 0.06 µg/mL (≈ 0.165 µM).
On to `Cc1cccc(C)[n+]1CCSC1=C(C(=O)[O-])N2C(=O)[C@H]([C@@H](C)O)[C@H]2C1` [Ex. 12], for which, in the data set on E. coli A15119 (setting [3]), the MIC was found to be 0.03 µg/mL (≈ 0.0828 µM).
`CC(C[n+]1ccccc1)SC1=C(C(=O)[O-])N2C(=O)[C@H]([C@@H](C)O)[C@H]2C1` (single isomer, unassigned) [Ex. 15 (cmp. "B")]: the MIC with P. aeruginosa A-9843A is 32 µg/mL (≈ 91.8 µM); against P. vulgaris A21559 it was 0.016 µg/mL (≈ 0.0459 µM); against S. aureus A-9537 (50% serum), 0.016 µg/mL (≈ 0.0459 µM); against S. aureus A-9537, 0.004 µg/mL (≈ 0.0115 µM); in the data set on K. pneumoniae A-9664, 0.03 µg/mL (≈ 0.0861 µM); against P. morganii A15153, 0.06 µg/mL (≈ 0.172 µM). In addition, the MIC was determined as 1 µg/mL (≈ 2.87 µM) against P. aeruginosa A21213; 0.06 µg/mL (≈ 0.172 µM) in the data set with K. pneumoniae A20468; 0.001 µg/mL (≈ 0.00287 µM) in the data set with S. pyogenes A-9604; 0.5 µg/mL (≈ 1.44 µM) in the data set with S. faecalis A20688; 0.008 µg/mL (≈ 0.023 µM) against E. coli A15119 (additional data); 0.016 µg/mL (≈ 0.0459 µM) in the data set on E. coli A20341-1 (additional data). The MIC was found to be 0.03 µg/mL (≈ 0.0861 µM) against P. mirabilis A-9900; 0.016 µg/mL (≈ 0.0459 µM) in data set [1]; 0.03 µg/mL (≈ 0.0861 µM) with S. marcescens A20019; 0.06 µg/mL (≈ 0.172 µM) with E. cloacae A-9659; 0.001 µg/mL (≈ 0.00287 µM) against S. pneumoniae A-9585.
`C[C@@H](O)[C@H]1C(=O)N2C(C(=O)[O-])=C(SC3CCCCC3[n+]3ccccc3)C[C@H]12` (single isomer, unassigned) [Ex. 16 (cmp. "B"), (5R,6S)3-[2-[(R or S)-(1-pyridinium)]-1-(R or S)-cyclohexylthio]-6-[1-(R)-hydroxyethyl]-7-oxo-1-azabicyclo(3.2.0)hept-2-ene-2-carboxylate]: in data set [2], the t1/2 is listed as 20.2 h. Moreover, the MIC with P. vulgaris A21559 was determined as 0.13 µg/mL (≈ 0.335 µM); in the data set with S. aureus A-9537, 0.13 µg/mL (≈ 0.335 µM); against P. morganii A15153 it was 0.5 µg/mL (≈ 1.29 µM); against P. aeruginosa A21213, 8 µg/mL (≈ 20.6 µM).
Take `CC(C[n+]1ccccc1)SC1=C(C(=O)[O-])N2C(=O)[C@H]([C@@H](C)O)[C@H]2C1` (single isomer, unassigned) [Ex. 15 (cmp. "A")]: the t1/2 in [2] is given as 15.6 h. In addition, the MIC came to 8 µg/mL (≈ 23 µM) against P. aeruginosa A-9843A; 0.06 µg/mL (≈ 0.172 µM) in the data set with S. aureus A-9537 (50% serum); 0.016 µg/mL (≈ 0.0459 µM) against S. aureus A-9537; 0.13 µg/mL (≈ 0.373 µM) in the data set on P. morganii A15153; 0.13 µg/mL (≈ 0.373 µM) with K. pneumoniae A20468; 0.004 µg/mL (≈ 0.0115 µM) against S. pyogenes A-9604. For the same compound, the MIC with S. faecalis A20688 is 2 µg/mL (≈ 5.74 µM); in the data set with E. coli A15119 (additional data) it was 0.03 µg/mL (≈ 0.0861 µM); in the data set on E. cloacae A-9656, 0.25 µg/mL (≈ 0.718 µM); in the data set with P. rettgeri A22424 it was 0.25 µg/mL (≈ 0.718 µM); in the data set with P. mirabilis A-9900, 0.13 µg/mL (≈ 0.373 µM); in data set [1] it was 0.06 µg/mL (≈ 0.172 µM). In addition, the minimal inhibitory concentration (MIC) with E. cloacae A-9659 amounted to 0.13 µg/mL (≈ 0.373 µM); with S. pneumoniae A-9585, 0.004 µg/mL (≈ 0.0115 µM).
As to `C[C@@H](O)[C@H]1C(=O)N2C(C(=O)[O-])=C(SCC[n+]3cccc(N)c3)C[C@H]12` [Ex. 14, (5R,6S)-3-[2-(3-aminopyridinio)ethylthio]-6-[1-(R)-hydroxyethyl]-7-oxo-1-azabicyclo[3.2.0]hept-2-ene-2-carboxylate], the minimal inhibitory concentration (MIC) in the data set on E. coli A15119 (setting [3]) was 0.03 µg/mL (≈ 0.0859 µM).
`C[C@@H](O)[C@H]1C(=O)N2C(C(=O)[O-])=C(SC3CCCCC3[n+]3ccccc3)C[C@H]12` (single isomer, unassigned) [Ex. 16 (cmp. "A"), (5R,6S)3-[2-[(R or S)-(1-pyridinium)]-1-(R or S)-cyclohexylthio]-6-[1-(R)-hydroxyethyl]-7-oxo-1-azabicyclo(3.2.0)hept-2-ene-2-carboxylate]: in data set [2] (pH 7.4, t1/2), the half-life was 16.6 h. In addition, the MIC in the data set on P. aeruginosa A-9843A amounted to 32 µg/mL (≈ 82.4 µM); with P. vulgaris A21559, 0.06 µg/mL (≈ 0.154 µM); against S. aureus A-9537 (50% serum), 0.06 µg/mL (≈ 0.154 µM); in the data set on S. aureus A-9537, 0.06 µg/mL (≈ 0.154 µM); with K. pneumoniae A-9664, 0.13 µg/mL (≈ 0.335 µM); in the data set on P. morganii A15153 it was 0.13 µg/mL (≈ 0.335 µM). Further, the MIC with P. aeruginosa A21213 is 2 µg/mL (≈ 5.15 µM); against S. pyogenes A-9604, 0.004 µg/mL (≈ 0.0103 µM); with S. faecalis A20688 it was 4 µg/mL (≈ 10.3 µM); against E. coli A20341-1 (additional data), 0.06 µg/mL (≈ 0.154 µM); with P. rettgeri A22424, 4 µg/mL (≈ 10.3 µM); in the data set on P. mirabilis A-9900 it was 0.13 µg/mL (≈ 0.335 µM). Further, the MIC in data set [1] (Staphylococcus aureus, read-out: MIC) was 0.13 µg/mL (≈ 0.335 µM); in the data set on S. pneumoniae A-9585 it was 0.004 µg/mL (≈ 0.0103 µM).
